{"source": "patent US10414721B1", "about": "“Inhibitor of endocannabinoid cellular reuptake” (University of Bern, priority 2018, dated 2019)", "key": {"[1]": {"tested_on": "2-AG uptake in Neuro2a cells", "test": "2-AG uptake and hydrolysis in Neuro2a cells", "type": "cell-based, mouse", "settings": "Neuro2a cells, time course", "description": "(§1) All radioactivity-based AEA and 2-AG uptake and release assays performed in U937, and HMC-1 cells were carried out using two different assay formats as previously reported. AEA and 2-AG uptake assay in Neuro2a and primary mouse cortical neurons were performed with a different method disclosed in Chicca 2017."}, "[2]": {"tested_on": "C57BL6/J mice", "settings": "repeated administrations; cited from earlier work"}, "[3]": {"tested_on": "CB1 receptors", "settings": "repeated administrations; cited from earlier work"}, "[4]": {"test": "14C-WOBE437 saturation binding to U937 membranes", "settings": "for competition with 14C-WOBE437 binding: brain and U937 membranes", "description": "(§2) In addition to their effects on AEA uptake, the inhibition of FAAH was thoroughly investigated for all nanomolar inhibitors. […] The lack of significant FAAH inhibition by WOBE437 was established in different assay systems using human recombinant enzyme, cell and brain homogenates. […] Importantly, WOBE437 (1 μM) inhibited AEA uptake also in primary mouse cortical neurons by 50% after 2-7 min of incubation with a smaller inhibition (20-35%) upon longer incubation (10-20 min, FIG. 1F). […] In Neuro2a cells, incubation with WOBE437 (5 μM) for 2 and 5 min reduced overall uptake by 40%. (FIG. 1G). […] Then cells were treated with radiolabeled ^14C-WOBE437 to investigate the cellular penetration of the compound. In U937 cells, the vast majority of the radioactive signal was collected in the extracellular and membrane-bound fractions (75-90%), with negligible amounts (5-9%) detected in the intracellular fraction (FIGS. 2A-D). […] In order to further investigate this point, ^14C-WOBE437 was applied to membrane preparations generated in-house from mouse brain and U937 cells. […] The Kd values are in line with the IC50 values shown in the functional AEA uptake assays in Neuro2a and U937 cells (FIGS. 1C and 1D). In further experiments, 10 nM of ^14C-WOBE437 was co-incubated with different concentrations of AEA and U937 membranes. […] Furthermore, the endocannabinoids AEA and noladin ether and the AEA uptake inhibitor OMDM-2 could compete with ^14C-WOBE437 binding in brain and U937 membranes. […] Secondary plots of the slope (Kmapp/Vmaxapp vs. [WOBE437]) and intercept (1/Vmaxapp vs. [WOBE437]) confirmed the competitive inhibition of AEA uptake."}, "[5]": {"test": "LC-MS/MS quantification of WOBE437 in tissues after i.p. injection", "type": "in vivo, mouse", "settings": "10 mg/kg i.p., C57BL6/N mice, after 1 h"}, "[6]": {"tested_on": "U937 cells", "test": "Localization of 14C-WOBE437 in cellular fractions of U937 cells", "type": "cell-based", "description": "FIGS. 2A-D: Different initial amounts of ^14C-WOBE437 were incubated for 15 min with 1×10^6 of U937 cells at 37° C. Afterwards, cells were centrifuged and the ^14C-signal was measured from the extracellular (light grey), membrane-bound (dark grey) and intracellular (white) fraction. The results are reported in absolute amounts and as percentage of the initial amount.\nThe cell penetration and tissue distribution of ^14C-WOBE437 was assessed in U937 cells and C57BL6/N mice as described in Chicca 2017."}, "[7]": {"test": "14C-WOBE437 saturation binding to mouse brain membranes", "settings": "mouse brain membranes", "description": "as §2"}, "[8]": {"tested_on": "main EC degrading enzymes (FAAH, MAGL)", "settings": "cited from earlier work"}, "[9]": {"tested_on": "AEA uptake in U937 cells", "test": "AEA uptake inhibition in U937 cells", "type": "cell-based", "settings": "for IC50 / IC50 for AEA uptake inhibition: U937 cells", "description": "Based on the natural product (2E,4E)-N-isobutylamidedodeca-2,4-dienamide from the medicinal plant E. purpurea as a starting point, a library of 634 of analogs and derivatives with varying alkyl chain length was synthesized, and structure of the head group moiety analyzed. All new derivatives were tested for AEA uptake inhibition in U937 cells using a high-content screening assay.\nas §1"}}, "note": "Read-outs that look alike come from different tables or passages of the source.", "data": [{"compound": "CN(Cc1cccc(-c2ccncc2)c1)C(=O)Oc1ccc(-c2ccc(C(N)=O)cc2)cc1", "note": "[WWL70, reference compound]", "values": [{"measurement": "effect on 2-AG uptake and hydrolysis", "setting": "[1]", "value": "prevented 2-AG uptake and hydrolysis occurring at later time points"}]}, {"compound": "O=C(Oc1ccc([N+](=O)[O-])cc1)N1CCC(C(O)(c2ccc3c(c2)OCO3)c2ccc3c(c2)OCO3)CC1", "note": "[JZL184]", "values": [{"measurement": "2-AG overflow relative to basal levels", "setting": "[2]", "value": "10-12 times basal levels"}, {"measurement": "effect on 2-AG uptake and hydrolysis", "setting": "[1]", "value": "specifically inhibited hydrolysis"}, {"measurement": "effect on CB1 receptors", "setting": "[3]", "value": "desensitize CB1 receptors"}]}, {"compound": "CCCCCCC/C=C/C=C/C(=O)NCCc1ccc(OC)c(OC)c1", "note": "[^14C-WOBE437]", "values": [{"measurement": "Bmax", "setting": "[4]; U937 membranes", "value": "15.6±1.4", "unit": "fmol/mg protein"}, {"measurement": "Kd", "setting": "[4]; U937 membranes", "value": "11.3 ± 2.4", "unit": "nM"}, {"measurement": "tissue distribution of 14C signal", "setting": "[5]", "value": "highest ^14C signal was measured in adipose tissue"}, {"measurement": "membrane-associated signal", "setting": "[6]; 10 nM", "value": "9.8 % of total signal"}, {"measurement": "membrane-associated signal", "setting": "[6]; 100 nM", "value": "1.7 % of total signal"}, {"measurement": "cell-associated radioactive signal over time", "setting": "[6]; 100 nM, 0-30 min", "value": "approximately 10 % of total signal"}, {"measurement": "membrane-associated signal", "setting": "[6]; 1 μM", "value": "0.7 % of total signal"}, {"measurement": "membrane-associated signal", "setting": "[6]; 10 μM", "value": "0.7 % of total signal"}, {"measurement": "radioactive signal in extracellular and membrane-bound fractions", "setting": "[6]; U937 cells, 15 min, 37° C.", "value": "75-90%"}, {"measurement": "radioactive signal in intracellular fraction", "setting": "[6]; U937 cells, 15 min, 37° C.", "value": "5-9%"}, {"measurement": "Bmax", "setting": "[7]", "value": "18.2±1.5", "unit": "fmol/mg protein"}, {"measurement": "Kd", "setting": "[7]; read-out: Kd", "value": "15.7 ± 2.8", "unit": "nM"}]}, {"compound": "CCCCC/C=C\\C/C=C\\C/C=C\\C/C=C\\CCCC(=O)NCc1ccoc1", "note": "[UCM707]", "values": [{"measurement": "substrate of FAAH or MAGL", "setting": "[8]; h/rFAAH or hMAGL", "value": "substrates for h/rFAAH or hMAGL"}]}, {"compound": "CCCCCCCC=CC=CC(=O)NCCc1ccccc1", "note": "[unsubstituted parent compound]", "values": [{"measurement": "IC50", "setting": "[9]; 100 nM total AEA", "value": 1140, "unit": "nM"}]}, {"compound": "CCCCCCCC/C=C\\CCCCCCCC(=O)N[C@@H](CO)Cc1ccc(O)cc1", "note": "[OMDM-2]", "values": [{"measurement": "competition with 14C-WOBE437 binding", "setting": "[4]", "value": "could compete"}]}, {"compound": "CCCCC/C=C\\C/C=C\\C/C=C\\C/C=C\\CCCC(=O)Nc1ccc(O)cc1", "note": "[AM404, N-(4-hydroxyphenyl)arachidonamide]", "values": [{"measurement": "substrate of FAAH or MAGL", "setting": "[8]; h/rFAAH or hMAGL", "value": "substrates for h/rFAAH or hMAGL"}]}, {"compound": "CCCCCCCC=CC=CC(=O)NCc1cccnc1", "note": "[pyridin-3-ylmethyl]", "values": [{"measurement": "IC50", "setting": "[9]; 100 nM total AEA", "value": 2690, "unit": "nM"}]}, {"compound": "CCCCC/C=C\\C/C=C\\C/C=C\\C/C=C\\CCCC(=O)NCCO", "note": "[AEA, N-arachidonoylethanolamine]", "values": [{"measurement": "effect on 14C-WOBE437 binding curve", "setting": "[4]; 10 nM 14C-WOBE437 co-incubated with increasing AEA", "value": "increase of Kd values, while not significantly modifying Bmax values"}, {"measurement": "competition with 14C-WOBE437 binding", "setting": "[4]", "value": "could compete"}]}, {"compound": "CCCCC/C=C\\C/C=C\\C/C=C\\C/C=C\\CCCCOC(CO)CO", "note": "[noladin ether]", "values": [{"measurement": "competition with 14C-WOBE437 binding", "setting": "[4]", "value": "could compete"}]}, {"compound": "CCCCC/C=C\\C/C=C\\C/C=C\\C/C=C\\CCCC(=O)Nc1ccc(O)cc1C", "note": "[VDM11, N-(2-methyl-4-hydroxy-phenyl)-arachidonamide]", "values": [{"measurement": "substrate of FAAH or MAGL", "setting": "[8]", "value": "substrates for h/rFAAH or hMAGL"}]}, {"compound": "CCCCCCC/C=C/C=C/C(=O)NCCc1cccnc1", "note": "[2-(pyridin-3-yl)]ethyl]", "values": [{"measurement": "IC50", "setting": "[9]; 100 nM total AEA", "value": 101, "unit": "nM"}, {"measurement": "IC50 for AEA uptake inhibition", "setting": "[9]; 100 nM total AEA", "value": "nanomolar range"}]}, {"compound": "benzodioxole", "values": [{"measurement": "potency for AEA uptake relative to WOBE437 (times less potent)", "setting": "[9]", "value": "approximately 13 times"}]}, {"compound": "CCCCCCC/C=C/C=C/C(=O)NCCc1ccc2c(c1)OCCO2", "note": "[N-(2,3-dihydro-1,4-benzodioxin-6-yl)ethyl dodeca-2E,4E-dienamide]", "values": [{"measurement": "potency for AEA uptake relative to WOBE437 (times less potent)", "setting": "[9]", "value": "approximately 13 times"}, {"measurement": "IC50 for AEA uptake inhibition", "setting": "[9]; 100 nM total AEA", "value": "nanomolar range"}]}, {"compound": "CCCCCCC/C=C/C=C/C(=O)NCCO", "note": "[(2E,4E)-dodecadienoyl ethanolamine]", "values": [{"measurement": "IC50", "setting": "[9]", "value": 3470, "unit": "nM"}]}]}
